# Measurements taken from patent publication US11691980B2, “Liphagal analog and multi-targeted kinase inhibitor containing liphagal or analog thereof” (TOHOKU UNIVERSITY, priority 2017, dated 2023).
# Columns and labels:
# Format in all cases: biochemical
# CaMK4 = target: T1, CaMK4 (Homo sapiens, UniProt Q16566); test: mobility shift assay
# T1 construct: purchased Carna Biosciences
# TRKA = target: T2, TRKA (Homo sapiens, UniProt P04629); test: mobility shift assay
# T2 construct: purchased Carna Biosciences
# IKKα = target: T3, IKKα (Homo sapiens, UniProt O15111); test: IMAP Assay
# T3 construct: purchased Carna Biosciences
# PLK1 = target: T4, PLK1 (Homo sapiens, UniProt P53350); test: mobility shift assay
# T4 construct: purchased Carna Biosciences
# MOS_Cascade = target: T5, MOS_Cascade (Homo sapiens, UniProt P00540); test: mobility shift assay
# T5 construct: purchased Carna Biosciences
# PIM 3 = target: T6, PIM 3 (Homo sapiens, UniProt Q86V86); test: mobility shift assay
# T6 construct: purchased Carna Biosciences
# CaMK1α = target: T7, CaMK1α (Homo sapiens, UniProt Q14012); test: mobility shift assay
# T7 construct: purchased Carna Biosciences
# PLK2 = target: T8, PLK2 (Homo sapiens, UniProt Q9NYY3); test: IMAP Assay
# T8 construct: purchased Carna Biosciences
# MAP3K2_Cascade = target: T9, MAP3K2_Cascade (Homo sapiens, UniProt Q9Y2U5); test: mobility shift assay
# T9 construct: purchased Carna Biosciences
# BRAF_Cascade = target: T10, BRAF_Cascade (Homo sapiens, UniProt P15056); test: mobility shift assay
# T10 construct: purchased Carna Biosciences
# JAK1 = target: T11, JAK1 (Homo sapiens, UniProt P23458); test: mobility shift assay
# T11 construct: purchased Carna Biosciences
# DLK_Cascade = target: T12, DLK_Cascade (Homo sapiens, UniProt Q12852); test: mobility shift assay
# T12 construct: purchased Carna Biosciences
# PAK2 = target: T13, PAK2 (Homo sapiens, UniProt Q13177); test: mobility shift assay
# T13 construct: purchased Carna Biosciences
# TRKC = target: T14, TRKC (Homo sapiens, UniProt Q16288); test: mobility shift assay
# T14 construct: purchased Carna Biosciences
# FTI1 = target: T15, FTI1 (Homo sapiens, UniProt P17948); test: mobility shift assay
# T15 construct: purchased Carna Biosciences
# CK2α2/β = target: T16, CK2α2/β (Homo sapiens, UniProt P19784); test: mobility shift assay
# T16 construct: purchased Carna Biosciences
# MLK2_Cascade = target: T17, MLK2_Cascade (Homo sapiens, UniProt Q02779); test: mobility shift assay
# T17 construct: purchased Carna Biosciences
# MST2 = target: T18, MST2 (Homo sapiens, UniProt Q13188); test: mobility shift assay
# T18 construct: purchased Carna Biosciences
# CDK2/CycE1 = target: T19, CDK2/CycE1 (Homo sapiens, UniProt P24941); test: mobility shift assay
# T19 construct: purchased Carna Biosciences
# Etk2 = target: T20, Etk2 (Homo sapiens, UniProt P28482); test: mobility shift assay
# T20 construct: purchased Carna Biosciences
# MET(Y1235D) = target: T21, MET(Y1235D) (Homo sapiens, UniProt P08581, Y1235D); test: mobility shift assay
# T21 construct: purchased Carna Biosciences
# EGFR(L858R) = target: T22, EGFR(L858R) (Homo sapiens, UniProt P00533, L858R); test: mobility shift assay
# T22 construct: purchased Carna Biosciences
# MAP2K1 Cascade = target: T23, MAP2K1 Cascade (Homo sapiens, UniProt Q02750); test: mobility shift assay
# T23 construct: purchased Carna Biosciences
# AKT3 = target: T24, AKT3 (Homo sapiens, UniProt Q9Y243); test: mobility shift assay
# T24 construct: purchased Carna Biosciences
# FYN(isoform b) = target: T25, FYN(isoform b) (Homo sapiens, UniProt P06241); test: mobility shift assay
# T25 construct: purchased Carna Biosciences
# PKACα = target: T26, PKACα (Homo sapiens, UniProt P17612); test: mobility shift assay
# T26 construct: purchased Carna Biosciences
# EPHB3 = target: T27, EPHB3 (Homo sapiens, UniProt P54753); test: mobility shift assay
# T27 construct: purchased Carna Biosciences
# EML4-ALK = target: T28, EML4-ALK (Homo sapiens, UniProt Q9UM73); test: mobility shift assay
# T28 construct: EML4 (fusion partner, Q9HC35); purchased Carna Biosciences; the other entry of the earlier key: EML4 (Q9HC35, Echinoderm microtubule-associated protein-like 4)
# YES = target: T29, YES (Homo sapiens, UniProt P07947); test: mobility shift assay
# T29 construct: purchased Carna Biosciences
# MNK = test: mobility shift assay; settings: 10 μM
# ALK(F1174L) = target: T30, ALK(F1174L) (Homo sapiens, UniProt Q9UM73, F1174L); test: mobility shift assay
# T30 construct: purchased Carna Biosciences
# PKCγ = target: T31, PKCγ (Homo sapiens, UniProt P05129); test: mobility shift assay
# T31 construct: purchased Carna Biosciences
# MRCKβ = target: T32, MRCKβ (Homo sapiens, UniProt Q9Y5S2); test: mobility shift assay
# T32 construct: purchased Carna Biosciences
# RAK4 = target: T33, RAK4 (Homo sapiens, UniProt Q9NWZ3); test: mobility shift assay
# T33 construct: purchased Carna Biosciences
# EPHA3 = target: T34, EPHA3 (Homo sapiens, UniProt P29320); test: mobility shift assay
# T34 construct: purchased Carna Biosciences
# MARK3 = target: T35, MARK3 (Homo sapiens, UniProt P27448); test: mobility shift assay
# T35 construct: purchased Carna Biosciences
# ABL(E265K) = test: mobility shift assay; settings: 10 μM
# JNK3 = target: T36, JNK3 (Homo sapiens, UniProt P53779); test: mobility shift assay
# T36 construct: purchased Carna Biosciences
# PKCβ1 = target: T37, PKCβ1 (Homo sapiens, UniProt P05771); test: mobility shift assay
# T37 construct: purchased Carna Biosciences
# CLK2 = target: T38, CLK2 (Homo sapiens, UniProt P49760); test: mobility shift assay
# T38 construct: purchased Carna Biosciences
# PKCε = target: T39, PKCε (Homo sapiens, UniProt Q02156); test: mobility shift assay
# T39 construct: purchased Carna Biosciences
# T3 sequence (O15111 whole entry): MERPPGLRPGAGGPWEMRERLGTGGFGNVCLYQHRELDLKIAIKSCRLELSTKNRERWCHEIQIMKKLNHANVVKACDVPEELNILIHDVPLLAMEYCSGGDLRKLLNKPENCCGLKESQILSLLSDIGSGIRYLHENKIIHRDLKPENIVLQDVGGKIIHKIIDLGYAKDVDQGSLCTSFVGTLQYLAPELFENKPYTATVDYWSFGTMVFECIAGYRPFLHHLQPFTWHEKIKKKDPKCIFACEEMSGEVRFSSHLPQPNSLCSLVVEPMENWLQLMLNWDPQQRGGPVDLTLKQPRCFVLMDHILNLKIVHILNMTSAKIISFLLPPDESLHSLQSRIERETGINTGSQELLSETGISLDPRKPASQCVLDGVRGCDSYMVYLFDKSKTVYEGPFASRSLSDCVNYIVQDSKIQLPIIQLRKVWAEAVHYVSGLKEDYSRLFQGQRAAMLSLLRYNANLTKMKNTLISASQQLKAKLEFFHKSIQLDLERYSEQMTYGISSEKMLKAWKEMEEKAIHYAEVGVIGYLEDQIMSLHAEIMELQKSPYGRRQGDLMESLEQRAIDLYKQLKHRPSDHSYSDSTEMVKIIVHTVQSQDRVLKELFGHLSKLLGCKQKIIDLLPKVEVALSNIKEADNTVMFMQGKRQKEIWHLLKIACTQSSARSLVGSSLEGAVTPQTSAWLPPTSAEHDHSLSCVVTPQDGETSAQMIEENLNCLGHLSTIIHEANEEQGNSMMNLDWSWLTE
# T36 sequence (P53779 whole entry): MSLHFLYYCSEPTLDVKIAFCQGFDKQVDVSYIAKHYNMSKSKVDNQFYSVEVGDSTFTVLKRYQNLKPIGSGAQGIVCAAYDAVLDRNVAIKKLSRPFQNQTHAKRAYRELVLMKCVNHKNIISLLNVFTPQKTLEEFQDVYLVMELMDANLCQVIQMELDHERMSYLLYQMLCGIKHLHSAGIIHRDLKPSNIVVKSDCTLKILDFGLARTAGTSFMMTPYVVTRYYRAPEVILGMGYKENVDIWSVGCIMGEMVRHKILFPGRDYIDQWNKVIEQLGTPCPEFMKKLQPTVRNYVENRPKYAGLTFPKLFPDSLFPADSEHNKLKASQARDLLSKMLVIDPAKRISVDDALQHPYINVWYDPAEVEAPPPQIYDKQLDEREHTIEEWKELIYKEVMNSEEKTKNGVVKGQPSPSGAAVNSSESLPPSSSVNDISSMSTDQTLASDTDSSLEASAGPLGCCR
# T27 sequence (P54753 34-998): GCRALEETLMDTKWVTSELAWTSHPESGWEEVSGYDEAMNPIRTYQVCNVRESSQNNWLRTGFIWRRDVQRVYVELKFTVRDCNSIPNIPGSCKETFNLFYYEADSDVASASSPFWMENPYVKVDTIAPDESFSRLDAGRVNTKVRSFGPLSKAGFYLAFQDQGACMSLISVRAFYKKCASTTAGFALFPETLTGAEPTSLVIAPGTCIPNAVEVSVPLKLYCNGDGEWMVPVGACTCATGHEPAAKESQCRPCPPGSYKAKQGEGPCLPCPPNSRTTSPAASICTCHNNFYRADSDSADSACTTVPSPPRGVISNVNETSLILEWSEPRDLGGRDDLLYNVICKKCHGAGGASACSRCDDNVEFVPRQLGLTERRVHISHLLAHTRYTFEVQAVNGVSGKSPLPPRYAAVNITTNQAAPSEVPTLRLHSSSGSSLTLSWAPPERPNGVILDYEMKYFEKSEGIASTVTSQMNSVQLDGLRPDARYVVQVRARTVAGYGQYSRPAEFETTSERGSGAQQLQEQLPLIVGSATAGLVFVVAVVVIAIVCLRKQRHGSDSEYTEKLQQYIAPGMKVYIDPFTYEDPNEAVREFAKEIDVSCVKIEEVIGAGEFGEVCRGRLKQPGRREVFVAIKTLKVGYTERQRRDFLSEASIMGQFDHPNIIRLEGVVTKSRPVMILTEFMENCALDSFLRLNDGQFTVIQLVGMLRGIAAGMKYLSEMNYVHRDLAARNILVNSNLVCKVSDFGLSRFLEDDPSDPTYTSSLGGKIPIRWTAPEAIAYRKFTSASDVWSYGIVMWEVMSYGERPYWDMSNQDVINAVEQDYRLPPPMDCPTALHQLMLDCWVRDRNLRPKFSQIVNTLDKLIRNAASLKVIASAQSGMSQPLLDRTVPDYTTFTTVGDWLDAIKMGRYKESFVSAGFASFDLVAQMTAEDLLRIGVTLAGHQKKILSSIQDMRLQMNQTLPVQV
# T29 sequence (P07947 whole entry): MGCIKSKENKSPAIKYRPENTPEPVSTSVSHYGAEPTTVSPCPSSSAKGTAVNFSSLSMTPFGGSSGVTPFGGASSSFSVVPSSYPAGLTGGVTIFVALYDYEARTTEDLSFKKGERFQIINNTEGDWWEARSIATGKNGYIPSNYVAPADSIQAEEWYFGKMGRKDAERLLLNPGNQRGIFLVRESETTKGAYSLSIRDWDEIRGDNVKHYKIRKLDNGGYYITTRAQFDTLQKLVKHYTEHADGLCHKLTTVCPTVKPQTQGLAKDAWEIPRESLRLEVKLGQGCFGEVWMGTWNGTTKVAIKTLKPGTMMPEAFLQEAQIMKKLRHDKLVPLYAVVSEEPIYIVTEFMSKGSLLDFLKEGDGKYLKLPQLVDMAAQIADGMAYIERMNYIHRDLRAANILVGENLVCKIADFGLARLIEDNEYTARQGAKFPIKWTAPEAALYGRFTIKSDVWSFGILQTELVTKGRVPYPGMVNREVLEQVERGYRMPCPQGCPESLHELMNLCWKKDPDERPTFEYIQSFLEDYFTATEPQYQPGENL
# T15 sequence (P17948 27-1338): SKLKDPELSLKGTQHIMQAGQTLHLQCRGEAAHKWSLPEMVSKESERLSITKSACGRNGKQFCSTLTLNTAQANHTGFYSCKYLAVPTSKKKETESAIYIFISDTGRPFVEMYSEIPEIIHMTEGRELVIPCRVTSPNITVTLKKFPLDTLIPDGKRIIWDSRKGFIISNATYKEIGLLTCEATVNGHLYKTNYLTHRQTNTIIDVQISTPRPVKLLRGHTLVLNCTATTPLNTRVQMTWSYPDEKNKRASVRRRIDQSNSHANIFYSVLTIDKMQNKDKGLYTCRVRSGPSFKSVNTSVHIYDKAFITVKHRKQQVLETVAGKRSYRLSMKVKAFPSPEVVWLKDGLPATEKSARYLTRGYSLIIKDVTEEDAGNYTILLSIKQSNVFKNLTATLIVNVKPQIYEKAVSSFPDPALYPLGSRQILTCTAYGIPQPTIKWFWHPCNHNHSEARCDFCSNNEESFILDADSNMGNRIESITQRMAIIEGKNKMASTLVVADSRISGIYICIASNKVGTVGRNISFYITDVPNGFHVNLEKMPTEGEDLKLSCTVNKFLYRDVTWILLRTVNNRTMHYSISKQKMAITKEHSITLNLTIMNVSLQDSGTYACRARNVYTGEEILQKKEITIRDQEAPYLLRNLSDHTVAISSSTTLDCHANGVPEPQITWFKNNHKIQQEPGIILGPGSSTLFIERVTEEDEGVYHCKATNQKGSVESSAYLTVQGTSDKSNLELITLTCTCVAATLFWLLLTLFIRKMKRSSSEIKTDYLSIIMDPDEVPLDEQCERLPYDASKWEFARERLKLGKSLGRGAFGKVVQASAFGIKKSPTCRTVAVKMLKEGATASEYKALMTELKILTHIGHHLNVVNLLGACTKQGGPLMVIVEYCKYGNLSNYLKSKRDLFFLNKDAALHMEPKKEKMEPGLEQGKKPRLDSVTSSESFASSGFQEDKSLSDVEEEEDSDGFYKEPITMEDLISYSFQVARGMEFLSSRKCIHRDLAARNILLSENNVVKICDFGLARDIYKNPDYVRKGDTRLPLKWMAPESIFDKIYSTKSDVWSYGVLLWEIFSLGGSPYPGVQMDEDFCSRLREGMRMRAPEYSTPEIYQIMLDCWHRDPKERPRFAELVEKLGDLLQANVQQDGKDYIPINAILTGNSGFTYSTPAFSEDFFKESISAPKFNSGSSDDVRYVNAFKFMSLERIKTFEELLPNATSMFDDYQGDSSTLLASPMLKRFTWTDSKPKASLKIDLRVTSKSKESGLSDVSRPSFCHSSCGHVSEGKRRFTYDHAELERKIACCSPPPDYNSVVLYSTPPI
# T18 sequence (Q13188 whole entry): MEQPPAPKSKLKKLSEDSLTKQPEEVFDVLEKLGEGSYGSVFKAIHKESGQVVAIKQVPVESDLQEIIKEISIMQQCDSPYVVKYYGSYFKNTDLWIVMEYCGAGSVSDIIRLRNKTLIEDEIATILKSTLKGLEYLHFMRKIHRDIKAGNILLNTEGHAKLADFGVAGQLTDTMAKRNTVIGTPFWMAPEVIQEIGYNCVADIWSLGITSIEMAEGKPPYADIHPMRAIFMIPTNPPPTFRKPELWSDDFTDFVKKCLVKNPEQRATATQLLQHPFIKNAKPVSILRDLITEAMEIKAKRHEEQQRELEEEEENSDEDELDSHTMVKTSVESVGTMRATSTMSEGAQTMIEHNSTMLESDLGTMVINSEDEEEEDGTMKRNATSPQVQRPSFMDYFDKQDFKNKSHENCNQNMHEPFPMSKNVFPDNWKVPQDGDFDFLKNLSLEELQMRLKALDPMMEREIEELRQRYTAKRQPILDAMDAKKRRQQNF
# T23 sequence (Q02750 whole entry): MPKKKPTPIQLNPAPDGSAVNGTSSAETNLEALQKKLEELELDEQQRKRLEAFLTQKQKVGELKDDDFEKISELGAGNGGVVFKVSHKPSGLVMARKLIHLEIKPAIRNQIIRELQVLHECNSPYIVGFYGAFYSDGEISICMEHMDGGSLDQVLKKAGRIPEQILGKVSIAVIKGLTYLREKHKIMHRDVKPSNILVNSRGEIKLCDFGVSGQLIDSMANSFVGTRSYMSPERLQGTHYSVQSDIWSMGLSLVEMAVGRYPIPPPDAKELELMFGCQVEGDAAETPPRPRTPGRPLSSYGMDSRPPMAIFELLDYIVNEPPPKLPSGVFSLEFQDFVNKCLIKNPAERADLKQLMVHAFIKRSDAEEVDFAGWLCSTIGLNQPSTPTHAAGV
compound,measurement,setting,value
"C[C@@H]1CC[C@H]2C(C)(C)CCC[C@]2(C)c2c1oc1c(C=O)c(O)c(O)cc21 [LG-1, liphagal]",inhibition at 10 µM,CaMK4,51.4%
same,inhibition at 10 µM,TRKA,36.4%
same,inhibition at 10 µM,IKKα,34.4%
same,inhibition at 10 µM,PLK1,31.3%
same,inhibition at 10 µM,MOS_Cascade,29.5%
same,inhibition at 10 µM,PIM 3,28.9%
same,inhibition at 10 µM,CaMK1α,25.7%
same,inhibition at 10 µM,PLK2,19.7%
same,inhibition at 10 µM,MAP3K2_Cascade,16.8%
same,inhibition at 10 µM,BRAF_Cascade,15%
same,inhibition at 10 µM,JAK1,14.9%
same,inhibition at 10 µM,DLK_Cascade,13.9%
same,inhibition at 10 µM,PAK2,12.4%
same,inhibition at 10 µM,TRKC,11.3%
same,inhibition at 10 µM,FTI1,10.4%
same,inhibition at 10 µM,CK2α2/β,9%
same,inhibition at 10 µM,MLK2_Cascade,8.3%
same,inhibition at 10 µM,MST2,7.6%
same,inhibition at 10 µM,CDK2/CycE1,6.9%
same,inhibition at 10 µM,Etk2,6.2%
same,inhibition at 10 µM,MET(Y1235D),5%
same,inhibition at 10 µM,EGFR(L858R),4.2%
same,inhibition at 10 µM,MAP2K1 Cascade,4.1%
same,inhibition at 10 µM,AKT3,3.3%
same,inhibition at 10 µM,FYN(isoform b),3.1%
same,inhibition at 10 µM,PKACα,2.3%
same,inhibition at 10 µM,EPHB3,1.7%
same,inhibition at 10 µM,EML4-ALK,1.1%
same,inhibition at 10 µM,YES,0.7%
same,% Inhibition,MNK,0.0%
same,inhibition at 10 µM,ALK(F1174L),-1.8%
same,inhibition at 10 µM,PKCγ,-1.9%
same,inhibition at 10 µM,MRCKβ,-1.9%
same,inhibition at 10 µM,RAK4,-2.8%
same,inhibition at 10 µM,EPHA3,-2.8%
same,inhibition at 10 µM,MARK3,-2.9%
same,% Inhibition,ABL(E265K),−3.3%
same,inhibition at 10 µM,JNK3,-5.8%
same,inhibition at 10 µM,PKCβ1,-18%
same,inhibition at 10 µM,CLK2,-25.5%
same,inhibition at 10 µM,PKCε,-46.9%
